Laboratory results: patent publication US7910582B2, “Cyclopropyl amines as modulators of the histamine H3 receptor” (Janssen Pharmaceutica NV, priority 2005, dated 2011)
Entries after “also recorded” stand apart in the source; their conditions may differ. Where two headings read alike, the source gives them in different places.

Legend:
[1] = target: T1, Human H3 Receptor (Homo sapiens, UniProt Q9Y5N1); experiment: [3H]-N-Methylhistamine binding, membranes of H3 receptor-expressing SK-N-MC cells; conditions: 0.8 nM [3H]-N-methylhistamine, 60 min at 25° C., average of results; read-out: Ki
T1 construct: expressed in transfected cells
T1 sequence (Q9Y5N1 whole entry): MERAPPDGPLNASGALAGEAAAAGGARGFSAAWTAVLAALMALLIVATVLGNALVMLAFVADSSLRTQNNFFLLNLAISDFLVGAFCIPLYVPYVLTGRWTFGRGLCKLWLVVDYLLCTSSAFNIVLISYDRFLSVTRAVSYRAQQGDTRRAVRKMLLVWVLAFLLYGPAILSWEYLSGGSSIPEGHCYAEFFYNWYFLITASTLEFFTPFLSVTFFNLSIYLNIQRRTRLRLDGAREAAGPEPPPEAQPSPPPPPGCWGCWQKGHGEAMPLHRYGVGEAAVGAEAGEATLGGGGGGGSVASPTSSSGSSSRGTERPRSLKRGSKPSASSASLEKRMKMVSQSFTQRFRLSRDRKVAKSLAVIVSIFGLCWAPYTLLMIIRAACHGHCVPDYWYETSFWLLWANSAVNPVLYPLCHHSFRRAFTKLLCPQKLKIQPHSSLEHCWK
Protocol: (§1) Cells were grown to about 70% to 80% confluence and removed from the plate with trypsin and pelleted in a clinical centrifuge. The pellet was then re-suspended in 400 μL of complete media and transferred to an electroporation cuvette with a 0.4 cm gap between the electrodes (Bio-Rad #165-2088). One μg supercoiled H3 receptor cDNA was added to the cells and mixed gently. The voltage for the electroporation was set at 0.25 kV and the capacitance was set at 960 μF. After electroporation the cells were diluted with 10 mL of complete media and were plated onto four 10 cm dishes at the following ratios: 1:20, 1:10, 1:5, and 1:2. The cells were allowed to recover for 24 h before adding 600 μg G-418. Colonies that survived selection were grown and tested. SK-N-MC cells were used because they give efficient coupling for inhibition of adenylate cyclase. The clones that gave the most robust inhibition of adenylate cyclase in response to histamine were used for further study.
Cell pellets from histamine H3 receptor-expressing SK-N-MC cells were homogenized in 50 mM TrisHCl/0.5 mM EDTA. Supernatants from an 800 g spin were collected and were recentrifuged at 30,000 g for 30 min. Pellets were re-homogenized in 50 mM Tris/5 mM EDTA (pH 7.4). Membranes were incubated with 0.8 nM [^3H]-N-methylhistamine plus/minus test compounds for 60 min at 25° C. and were harvested by rapid filtration over GF/C glass fiber filters (pretreated with 0.3% polyethylenimine) followed by four washes with buffer. Filters were added to 5 mL of scintillation cocktail, and the signal was then counted on a liquid scintillation counter.

[2] = target: T1, Human H3 Receptor; experiment: Cyclic AMP accumulation, SK-N-MC cells with reporter construct and human H3 receptor (pA2); format: cell-based; conditions: pA2, average of results
Protocol: as §1, with “The pellet was then re-suspended in 400 μL of complete media and transferred to an electroporation cuvette with a 0.4 cm gap between the electrodes (Bio-Rad #165-2088).” left out, “The cells were allowed to recover for 24 h before adding 600 μg G-418.” left out
Sublines of SK-N-MC cells were created that expressed a reporter construct and the human H3 receptor.

[3] = Pharmacokinetics and bioanalysis in the rat; format: in vivo, male Sprague Dawley Rats; conditions: for AUC(0-inf): read-out: AUCINF (h-μmol/mL)
Protocol: One group of six male Sprague Dawley Rats (approx. 300 g body weight; three animals per time point) was used. They were group-housed, provided food and water ad libitum, and were maintained on a 12-h light and dark cycle. Animals were acclimatized for at least 7 days after receipt from the vendor prior to investigations.
For oral dosing, test compounds were formulated at 1 mg/mL in 0.5% hydroxypropyl methyl cellulose and delivered at a dose of 10 mg/kg. Citric acid salt forms (prepared as described for Example 1B) of the test compounds were used. Animals received a bolus dose of 10 mg/kg (10 mL/kg) for each compound via a 16 gauge intragastric gavage. For intravenous dosing, test compounds were formulated at 1 mg/mL in 5% dextrose in water and dosed at 1 mg/kg (1 mL/kg) with a bolus intravenous dose via a 24-gauge Terumo® Surflo® catheter in the lateral tail vein. All dosing solutions were prepared immediately prior to injection.
Blood samples (250 μL) were taken from the lateral tail vein into heparinized Natelson blood collection tubes and expelled into 1.5 mL mcirocentrifuge tubes. The blood samples were centrifuged for 5 min at 14,000 rpm in a micro-centrifuge. Plasma was retained and kept in a −20° C. freezer until analysis by LC-MS/MS.
Data analysis was performed using WinNonlin version 3.3 or 4.0.1. A non -compartmental model (#200 for Extravascular administration and #201 for i.v.) was used to determine the pharmacokinetic parameters shown in Tables 4 and 5 (NA=not applicable or not determined).

[4] = Measured pKa, log P and log D (determined by pION, Inc.); format: physicochemical; conditions: for pKa: read-out: pKa (meas.)
Protocol: Measured pKa, log P, and log D values were determined by pION, Inc. (Woburn, Mass.).

[5] = compared with isopropyl / cyclobutyl analogs
[6] = male, Sprague Dawley, iv, i.v. 1 mg/kg, citric acid salt, plasma
[7] = male, Sprague Dawley, oral 10 mg/kg, citric acid salt, plasma
[8] = oral 10 mg/kg, citric acid salt

| SMILES | Ki [1] | Kb [2] | CI ([3]; i.v. 1 mg/kg, citric acid salt) | Cmax [3, 6] | AUC(0-inf) [3, 6] | Cmax [3, 7] | Tmax [3, 7] | half-life [3, 7] | AUC(0-inf) [3, 7] | CI [3, 8] | Vd [3, 8] | logD [4] | logP [4] | pKa [4] | pKa ([4]; second value) | further results |
| --- | --- | --- | --- | --- | --- | --- | --- | --- | --- | --- | --- | --- | --- | --- | --- | --- |
| O=C(O)CC(O)(CC(=O)O)C(=O)O.O=C(c1ccc(CN2CCC(F)CC2)cc1)N1CCN(C2CC2)CC1 [Example 2B, (4-Cyclopropyl-piperazin-1-yl)-[4-(4-fluoro-piperidin-1-ylmethyl)-phenyl]-methanone citrate salt] | 2 nM | 1 nM | 2.48 L/h/kg | 3.78 µM | 1370 nM·h | 0.42 µM | 1.67 h | 2.72 h | 1910 nM·h | 25.9 L/h/kg | 112 L/kg |  |  |  |  | half-life (T1/2) relative to the comparative examples [3, 5]: shorter T1/2; volume of distribution (Vd) relative to the comparative examples [3, 5]: lower Vd; half-life [3, 6]: 1.11 h; Vd ([3]; male, Sprague Dawley, plasma, iv, i.v. 1 mg/kg, citric acid salt, read-out: Vd): 3.94 L/kg |
| CC(C)N1CCN(C(=O)c2ccc(CN3CCC(F)CC3)cc2)CC1.O=C(O)CC(O)(CC(=O)O)C(=O)O [Comparative Example 3B, [4-(4-Fluoro-piperidin-1-ylmethyl)-phenyl]-(4-isopropyl-piperazin-1-yl)-methanone citrate salt] | 1 nM | 0.251 nM | 2.65 L/h/kg | 1.49 µM | 1160 nM·h | 0.16 µM | 1.33 h | 8.22 h | 1950 nM·h | 16.2 L/h/kg | 180 L/kg |  |  |  |  | Vd ([3]; i.v. 1 mg/kg, citric acid salt): 29.2 L/kg; T1/2 ([3]; i.v. 1 mg/kg, citric acid salt, plasma): 7.60 h |
| O=C(c1ccc(CN2CCC(F)CC2)cc1)N1CCN(C2CCC2)CC1 [Comparative Example 4, (4-Cyclobutyl-piperazin-1-yl)-[4-(4-fluoro-piperidin-1-ylmethyl)-phenyl]-methanone] | 0.7 nM | 0.1 nM |  |  |  |  |  |  |  |  |  |  |  |  |  |  |
| O=C(c1ccc(CN2CCOCC2)cc1)N1CCN(C2CC2)CC1 [Example 1, (4-Cyclopropyl-piperazin-1-yl)-(4-morpholin-4-ylmethyl-phenyl) -methanone] | 5.4 nM | 3.98 nM |  |  |  |  |  |  |  |  |  | 0.86 | 0.89 | 6.5 | 5.3 | measured pKa (basicity) relative to calculated value and to isopropyl / cyclobutyl amine analogs [4]: significantly lower; also recorded: significant decrease in basicity |
| CC(C)N1CCN(C(=O)c2ccc(CN3CCOC(CO)C3)cc2)CC1 (stereo not drawn) [Comparative Example 6, [4-(2-Hydroxymethyl-morpholin-4-ylmethyl)-phenyl]-(4-isopropyl-piperazin-1-yl)-methanone] | 6 nM | 6.31 nM |  |  |  |  |  |  |  |  |  |  |  |  |  |  |
| O=C(c1ccc(CN2CCOCC2)cc1)N1CCN(C2CCC2)CC1 [Comparative Example 2, (4-Cyclobutyl-piperazin-1-yl)-(4-morpholin-4-ylmethyl-phenyl) -methanone] | 1 nM | 0.316 nM |  |  |  |  |  |  |  |  |  | 1.77 | 2.09 | 7.4 | 6.5 |  |
